{"source": "patent US9453835B2", "about": "“Method for screening a modulator of a TMEM16 family member” (Kyoto University, priority 2012, dated 2016)", "key": {"[1]": {"tested_on": "IFETs expressing TMEM16A, 16B, 16E, 16H, or 16K", "assay": "Internalization of NBD-PC by TMEM16 transformants without scramblase activity", "format": "cell-based, mouse", "conditions": "250 nM A23187", "experimental": "(§1) A and C, The ability of TMEM16 family members to internalize NBD-PC and NBD-GalCer. TMEM16F^−/− IFETs transformed with the indicated TMEM16 family member were treated at 15° C. with (+) or without (−) 250 nM A23187 in the presence of 100 nM NBD-PC for 4 min (A) or 250 nM NBD-GalCer for 5 min (C), and the internalized, or BSA-non extractable NBD-PC or NBD-GelCer, was quantified by FACSAria, and expressed in MFI.\n(§2) Cells (10^6) were stimulated at 15° C. with 250 nM A23187 in 1 ml Hank's Balanced Salt Solution (HBSS) (Gibco, Billings, Mont.) containing 1 mM CaCl2, with a fluorescent probe, 100 nM 1-oleoyl-2-{6-[(7-nitro-2-1,3-benzoxadiazol-4-yl)amino]hexanoyl}-sn-glycero-3-phosphocholine (NBD-PC) (Avanti Polar Lipids, Alabaster, Ala.), or 250 nM N-[6-[(7-nitro-2-1,3-benzoxadiazol-4-yl)amino]hexanoyl]-D-galactosyl-β1-1′-sphingosine (C6-NBD galactosyl ceramide or NBD-GalCer) (Avanti Polar Lipids). Aliquots (150 μl) were mixed with 150 μl HBSS containing 5 mg/ml fatty-acid free BSA (Sigma-Aldrich) and 500 nM Sytoxblue (Molecular Probes, Eugene, Oreg.), and analyzed by FACSAria."}, "[2]": {"tested_on": "TMEM16F^flox/flox IFETs", "assay": "Internalization of NBD-PC and NBD-GalCer", "format": "cell-based, mouse", "conditions": "15° C., 250 nM A23187", "experimental": "B and C, Ca^2+ ionophore induced lipid internalization. TMEM16F^flox/flox and TMEM16F^−/− IFETs were treated at 15° C. with 250 nM A23187 in the presence of 100 nM NBD-PC (B) or 250 nM NBD-GalCer (C). Using aliquots of the reaction mixture, the BSA-non extractable level of NBD-PC or NBD-GalCer in the SytoxBlue-negative population was determined at the indicated time by FACSAria, and expressed in MFI.\nas §2"}, "[3]": {"tested_on": "TMEM16F^flox/flox IFETs", "assay": "Ca2+-induced PE exposure (binding of RO-peptide)", "format": "cell-based, mouse", "conditions": "data not shown"}, "[4]": {"tested_on": "TMEM16F^−/− IFETs", "assay": "Ca2+-induced PS exposure (Cy5-Annexin V binding, flow cytometry)", "format": "cell-based, mouse", "conditions": "20° C., 3.0 μM A23187", "experimental": "(§3) A, Ca^2+ ionophore induced PS exposure. TMEM16F^flox/flox and TMEM16F^−/− IFETs were treated at 20° C. with 3.0 μM A23187 in the presence of Cy5-labeled Annexin V. Annexin V-binding to the cells was monitored by flow cytometry for 10 min, and expressed in MFI (mean fluorescence intensity).\n(§4) The Ca^2+-induced PS exposure were examined as described (20). In brief, 5×10^5 cells were stimulated at 20° C. with 3.0 μM A23187 in 500 μl of 10 mM Hepes-NaOH buffer (pH 7.4) containing 140 mM NaCl, 2.5 mM CaCl2 and 5 μg/ml Propidium Iodide (PI), and 1000-fold-diluted Cy5-labeled Annexin V (Bio Vision, Milpitas, Calif.), and applied to the injection chamber of a FACSAria (BD Bioscience, Franklin Lakes, N.J.) set at 20° C."}, "[5]": {"tested_on": "TMEM16F^flox/flox IFETs", "assay": "Ca2+-induced PS exposure (Cy5-Annexin V binding, flow cytometry)", "format": "cell-based, mouse", "conditions": "20° C., 3.0 μM A23187", "experimental": "as §3, §4"}, "[6]": {"tested_on": "TMEM16D transformants of TMEM16F^−/− IFETs", "assay": "Internalization of NBD-PC and NBD-GalCer by TMEM16D transformants", "format": "cell-based, mouse", "conditions": "15° C.", "experimental": "as §1\nB, Requirement of Ca^2+ for the constitutive internalization of NBD-PC by TMEM16D. The TMEM16D transformants of TMEM16F^−/− IFETs were treated with 40 μM BAPTA-AM for 30 min in Ca^2+-free RPMI, and incubated at 15° C. for 8 min in HBSS containing 1 mM CaCl2 and 100 nM NBD-PC. The internalized NBD-PC was determined as above, and expressed as percentage of the internalized NBD-PC obtained without BAPTA-AM treatment.\nas §2"}, "[7]": {"tested_on": "IFETs expressing mouse Fas", "assay": "FasL-induced apoptosis", "format": "cell-based", "experimental": "E-G, FasL-induced apoptosis. Fas-expressing TMEM16F^flox/flox and TMEM16F^−/− IFETs were treated at 37° C. for 2 h with 60 units/ml FasL in the absence or presence of 50 μM Q-VD-OPh. In E, the cells were permeabilized with 90% methanol, and stained with rabbit anti-active caspase 3 followed by incubation with Alexa 488-labeled goat anti-rabbit IgG. In F, cells were stained with Cy5-labeled Annexin V and PI and analyzed by FACSAria. In G, cells were analyzed by FACSAria before and after FasL treatment; the FSC and SSC profiles are shown.\nApoptosis was induced with FasL as described (25). In brief, IFETs expressing mouse Fas were treated with 60 units/ml FasL at 37° C. for 2 h, and PS exposure was determined by flow cytometry with Cy5-Annexin V. To detect activated caspase 3, cells were fixed at 37° C. for 10 min in PBS containing 1% paraformaldehyde, permeabilized with 90% methanol at −20° C., and stained with rabbit mAb against active caspase 3 (Cell Signaling, Danvers, Mass.). Cells were then incubated with Alexa 488-labeled goat anti-rabbit IgG (Invitrogen), and analyzed by FACSAria."}, "[8]": {"conditions": "TMEM16F^flox/flox and TMEM16F^−/− IFETs, to the same extent"}}}
{"molecule": "CNc1ccc2oc(C[C@H]3O[C@@]4(CC[C@H]3C)O[C@H]([C@H](C)C(=O)c3ccc[nH]3)[C@H](C)C[C@H]4C)nc2c1C(=O)O", "note": "[A23187]", "values": [{"measurement": "NBD-PC uptake", "setting": "[1]", "result": "did not induce"}, {"measurement": "internalization of NBD-PC and NBD-GalCer", "setting": "[2]", "result": "internalized NBD-PC and NBD-GalCer"}, {"measurement": "PE-exposure", "setting": "[3]", "result": "caused rapid PE-exposure"}, {"measurement": "PS exposure", "setting": "[4]", "result": "completely absent"}, {"measurement": "PS exposure", "setting": "[5]", "result": "quickly exposed PS"}, {"measurement": "NBD-PC internalization", "setting": "[6]; 250 nM A23187, 100 nM NBD-PC, 4 min, versus constitutive uptake", "result": "strongly enhanced"}, {"measurement": "NBD-GalCer uptake", "setting": "[6]; 250 nM A23187, 250 nM NBD-GalCer, 5 min, versus constitutive uptake", "result": "enhanced"}]}
{"molecule": "CC(=O)OCOC(=O)CN(CC(=O)OCOC(C)=O)c1ccccc1OCCOc1ccccc1N(CC(=O)OCOC(C)=O)CC(=O)OCOC(C)=O", "note": "[BAPTA-AM]", "values": [{"measurement": "NBD-PC uptake observed without Ca2+-ionophore", "setting": "[6]; pre-treatment 40 μM BAPTA-AM 30 min, 100 nM NBD-PC, 8 min", "result": "reduced"}]}
{"molecule": "FasL: Leucine-zipper-tagged human FasL produced in COS7 cells (protein, left off: small tags and cut ends, Leucine-zipper-tagged human FasL produced in COS7 cells) QIGHPSPPPEKKELRKVAHLTGKSNSRSMPLEWEDTYGIVLLSGVKYKKGGLVINETGLYFVYSKVYFRGQSCNNLPLSHKVYMRNSKYPQDLVMMEGKMMSYCTTGQMWARSSYLGAVFNLTSADHLYVNVSELSLVNFEESQTFFGLYKL", "values": [{"measurement": "caspase 3 activation", "setting": "[7]; 60 units/ml FasL, 37° C., 2 h", "result": "efficiently activated"}, {"measurement": "PS exposure", "setting": "[7]; 60 units/ml FasL, 37° C., 2 h, Cy5-Annexin V", "result": "quickly responded by exposing PS"}, {"measurement": "cell size (forward-scattered light, FSC)", "setting": "[7]; [8]", "result": "decreased"}, {"measurement": "cellular granularity (side-scattered light, SSC)", "setting": "[7]; [8]", "result": "increased"}]}
